Measurements reported in US9663526B2, “Aminopyrimidinyl compounds” (Pfizer Inc., priority 2014, dated 2017).
Where two headings read alike, the source gives them in different places.

Experiments:
[1] = tested on: interferon alpha signalling (TYK2 and JAK1), STAT3 phosphorylation; experiment: Human whole blood INFα induced STAT3 phosphorylation assay; type: cell-based; conditions: compound 60 minutes at 37° C., IFNα 5000 U/ml for 15 minutes, pSTAT3 in lymphocyte population by flow cytometry, read-out: HWB IFN alpha IC50;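 further: flow cytometry with anti-pSTAT3 staining, signal as percent-positive × mean fluorescence, baseline from unstimulated wells, 11-point dilution series, IC50 as inhibition of pSTAT3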
[2] = target: recombinant human kinase domain of JAK1 (Homo sapiens (Human), UniProt P23458); experiment: JAK Caliper enzyme assay at 1 mM ATP (JAK1); type: biochemical; conditions: 1 mM ATP; read-out: IC50 (nM) JAK1;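 further: microfluidic mobility-shift readout of synthetic fluorescent peptide phosphorylation, percent product converted from peak height, inhibition relative to DMSO-only wells as uninhibited baseline, room temperature incubation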
[3] = target: recombinant human kinase domain of JAK2 (Homo sapiens (Human), UniProt O60674); experiment: JAK Caliper enzyme assay at 1 mM ATP (JAK2); type: biochemical;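 further: microfluidic mobility-shift read-out of fluorescent synthetic peptide phosphorylation, percent product converted from peak heights, room temperature, DMSO-only wells as uninhibited baseline, inhibition curve fit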
[4] = target: recombinant human kinase domain of JAK3 (Homo sapiens (Human), UniProt P52333); experiment: JAK Caliper enzyme assay at 1 mM ATP (JAK3); type: biochemical;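 further: microfluidic mobility-shift readout of synthetic peptide phosphorylation, percent product converted from peak heights, normalized to DMSO-only wells as uninhibited baseline, room temperature incubation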
[5] = target: recombinant human kinase domain of TYK2 (Homo sapiens (Human), UniProt P29597); experiment: JAK Caliper enzyme assay at 1 mM ATP (TYK2); type: biochemical; conditions: 1 mM ATP; read-out: IC50 (nM) TYK2;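 further: microfluidic mobility-shift readout of synthetic peptide phosphorylation by TYK2, tuned to 20–30% conversion at room temperature, reaction stopped with EDTA, DMSO-only wells as uninhibited baseline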
[6] = 1 mM ATP, read-out: IC50 (nM) JAK3

Chain of recombinant human kinase domain of TYK2 (P29597 897-1176): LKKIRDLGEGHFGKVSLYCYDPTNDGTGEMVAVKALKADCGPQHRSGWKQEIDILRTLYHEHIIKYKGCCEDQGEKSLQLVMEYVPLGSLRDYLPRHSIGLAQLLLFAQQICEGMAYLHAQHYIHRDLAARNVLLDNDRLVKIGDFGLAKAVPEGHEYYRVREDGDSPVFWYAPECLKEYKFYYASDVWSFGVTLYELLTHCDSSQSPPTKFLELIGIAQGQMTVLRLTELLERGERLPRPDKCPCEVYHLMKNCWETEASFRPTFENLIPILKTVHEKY
Chain of recombinant human kinase domain of JAK1 (P23458 875-1153): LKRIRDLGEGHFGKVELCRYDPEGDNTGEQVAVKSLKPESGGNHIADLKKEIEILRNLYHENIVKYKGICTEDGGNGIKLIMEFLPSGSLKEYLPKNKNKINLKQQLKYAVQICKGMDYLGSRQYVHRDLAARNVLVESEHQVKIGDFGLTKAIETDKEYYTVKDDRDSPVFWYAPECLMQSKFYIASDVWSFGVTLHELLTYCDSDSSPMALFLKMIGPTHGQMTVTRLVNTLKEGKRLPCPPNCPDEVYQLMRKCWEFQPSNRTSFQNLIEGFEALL
Chain of recombinant human kinase domain of JAK2 (O60674 849-1124): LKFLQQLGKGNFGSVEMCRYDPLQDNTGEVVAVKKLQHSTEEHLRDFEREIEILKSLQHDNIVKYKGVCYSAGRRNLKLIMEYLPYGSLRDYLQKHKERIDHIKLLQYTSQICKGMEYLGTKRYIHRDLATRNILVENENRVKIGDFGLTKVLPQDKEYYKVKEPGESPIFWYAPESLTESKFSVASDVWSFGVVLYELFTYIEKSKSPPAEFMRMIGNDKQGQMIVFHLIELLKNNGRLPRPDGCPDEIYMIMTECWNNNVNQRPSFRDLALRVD
Chain of recombinant human kinase domain of JAK3 (P52333 822-1111): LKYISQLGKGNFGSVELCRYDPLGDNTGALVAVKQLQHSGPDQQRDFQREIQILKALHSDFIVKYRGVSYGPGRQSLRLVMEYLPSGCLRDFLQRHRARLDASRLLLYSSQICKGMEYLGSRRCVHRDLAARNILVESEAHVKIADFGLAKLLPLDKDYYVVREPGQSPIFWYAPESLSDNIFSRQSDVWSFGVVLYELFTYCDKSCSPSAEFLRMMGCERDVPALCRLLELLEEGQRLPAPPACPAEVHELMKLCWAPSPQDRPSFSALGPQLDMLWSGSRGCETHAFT

Structure (SMILES) | IC50 [1] | IC50 [2] | IC50 [3] | IC50 [4, 6] | IC50 [5] | IC50 [4]
Cn1cc(Nc2nccc(N3C[C@H]4CC[C@@H](C3)N4C(=O)[C@@H]3CC3(F)F)n2)cn1 [Example 7, [(1S)-2,2-difluorocyclopropyl][(1R,5S)-3-{2-[(1-methyl-1H-pyrazol-4-yl)amino]pyrimidin-4-yl}-3,8-diazabicyclo[3.2.1]oct-8-yl]methanone] | 30 nM | – | – | – | – | –
Cc1cc(Nc2nccc(N3C[C@H]4CC[C@@H](C3)N4C(=O)C3CC3)n2)cnc1C(N)=O [Example 15, 5-({4-[(1R,5S)-8-(cyclopropylcarbonyl)-3,8-diazabicyclo[3.2.1]oct-3-yl]pyrimidin-2-yl}amino)-3-methylpyridine-2-carboxamide] | 534 nM | – | – | – | – | –
O=C([C@@H]1CC1(F)F)N1[C@@H]2CC[C@H]1CN(c1ccnc(Nc3cnc(N4CC[C@@H](O)C4)c(F)c3)n1)C2 [Example 21, [(1S)-2,2-difluorocyclopropyl]{(1R,5S)-3-[2-({5-fluoro-6-[(3R)-3-hydroxypyrrolidin-1-yl]pyridin-3-yl}amino)pyrimidin-4-yl]-3,8-diazabicyclo[3.2.1]oct-8-yl}methanone] | 731 nM | – | – | – | – | –
Cn1cc(Nc2nccc(N3C[C@H]4CC[C@@H](C3)N4C(=O)Nc3ccc(C(F)(F)F)cn3)n2)cn1 [Example 48, (1R,5S)-3-{2-[(1-methyl-1H-pyrazol-4-yl)amino]pyrimidin-4-yl}-N-[5-(trifluoromethyl)pyridin-2-yl]-3,8-diazabicyclo[3.2.1]octane-8-carboxamide] | – | 300 nM | 2510 nM | > 10000 nM | 964 nM | –
O=C(C1CC1)N1[C@@H]2CC[C@H]1CN(c1ccnc(Nc3cnsc3)n1)C2 [Example 52, cyclopropyl{(1R,5S)-3-[2-(1,2-thiazol-4-ylamino)pyrimidin-4-yl]-3,8-diazabicyclo[3.2.1]oct-8-yl}methanone] | – | 172 nM | 1240 nM | > 10000 nM | 93 nM | –
Cn1cc(Nc2nccc(N3C[C@H]4CC[C@@H](C3)N4C[C@H]3CC3(F)F)n2)cn1 [Example 63, 4-[(1R,5S)-8-{[(1R)-2,2-difluorocyclopropyl]methyl}-3,8-diazabicyclo[3.2.1]oct-3-yl]-N-(1-methyl-1H-pyrazol-4-yl)pyrimidin-2-amine] | – | 303 nM | 856 nM | > 10000 nM | 125 nM | –
CNC(=O)c1ncc(Nc2nccc(N3C[C@H]4CC[C@@H](C3)N4C[C@H]3CC3(F)F)n2)cc1C [Example 68, 5-({4-[(1R,5S)-8-{[(1R)-2,2-difluorocycloproDyl]methyl}-3,8-diazabicyclo[3.2.1]oct-3-yl]pyrimidin-2-yl}amino)-N,3-dimethylpyridine-2-carboxamide] | – | 85 nM | 188 nM | > 10000 nM | 22 nM | –
Cn1cc(Nc2nccc(N3C[C@H]4CC[C@@H](C3)N4C[C@H]3C[C@@H]3C#N)n2)cn1 [Example 69, (1S,2S)-2-{[(1R,5S)-3-{2-[(1-methyl-1H-pyrazol-4-yl)amino]pyrimidin-4-yl}-3,8-diazabicyclo[3.2.1]oct-8-yl]methyl}cyclopropanecarbonitrile] | – | 1100 nM | 5700 nM | – | 811 nM | > 10000 nM
Cn1cc(Nc2nccc(N3C[C@H]4CC[C@@H](C3)N4C[C@H]3C[C@@H]3C#N)n2)cn1 [Example 70, (1S,2S)-2-{[(1R,5S)-3-{2-[(1-methyl-1H-pyrazol-4-yl)amino]pyrimidin-4-yl}-3,8-diazabicyclo[3.2.1 l]oct-8-yl]methyl}cyclopropanecarbonitrile] | – | 259 nM | 1540 nM | > 10000 nM | 261 nM | –
CCNC(=O)c1ccc(Nc2ncc(F)c(N3C[C@H]4CC[C@@H](C3)N4C(=O)OC(C)(C)C)n2)cc1C [Example 73, tert-butyl 3-(2-{[4-(ethylcarbamoyl)-3-methylphenyl]amino}-5-fluoropyrimidin-4-yl)-3,8-diazabicyclo[3.2.1]octane-8-carboxylate] | – | 260 nM | 170 nM | 1770 nM | 17 nM | –
Cn1cc(Nc2nccc(N3C[C@H]4CC[C@@H](C3)N4C(N)=O)n2)cn1 [Example 76, (1R,5S)-3-{2-[(1-methyl-1H-pyrazol-4-yl)amino]pyrimidin-4-yl}-3,8-diazabicyclo[3.2.1]octane-8-carboxamide] | – | 537 nM | 1480 nM | > 10000 nM | 662 nM | –
Cn1cc(Nc2nccc(N3C[C@H]4CC[C@@H](C3)N4S(C)(=O)=O)n2)cn1 [Example 77, N-(1-methyl-1H-pyrazol-4-yl)-4-[(1R,5S)-8-(methylsulfonyl)-3,8-diazabicyclo[3.2.1]oct-3-yl]pyrimidin-2-amine] | – | 380 nM | 653 nM | > 10000 nM | 256 nM | –
Cn1cc(Nc2nccc(N3C[C@H]4CC[C@@H](C3)N4c3ncc(C#N)o3)n2)cn1 [Example 78, 2-[(1R,5S)-3-{2-[(1-methyl-1H-pyrazol-4-yl)amino]pyrimidin-4-yl}-3,8-diazabicyclo[3.2.1]oct-8-yl]-1,3-oxazole-5-carbonitrile] | – | 68 nM | 461 nM | > 10000 nM | 63 nM | –
CC(CC#N)N1[C@@H]2CC[C@H]1CN(c1ccnc(Nc3cnn(C)c3)n1)C2 (stereo partly drawn) [Example 81] | – | 405 nM | 603 nM | > 10000 nM | 199 nM | –
CC(CC#N)N1[C@@H]2CC[C@H]1CN(c1ccnc(Nc3cn[nH]c3)n1)C2 (stereo partly drawn) [Example 82, 3-{(1R,5S)-3-[2-(1H-pyrazol-4-ylamino)pyrimidin-4-yl]-3,8-diazabicyclo[3.2.1]oct-8-yl}butanenitrile] | – | 135 nM | 473 nM | > 10000 nM | 79 nM | –
CC(C)NC(=O)N1[C@@H]2CC[C@H]1CN(c1ccnc(Nc3cnn(C)c3)n1)C2 [Example 88, (1R,5S)-3-{2-[(1-methyl-1H-pyrazol-4-yl)amino]pyrimidin-4-yl}-N-(propan-2-yl)-3,8-diazabicyclo[3.2.1]octane-8-carboxamide] | – | 165 nM | 894 nM | > 10000 nM | 110 nM | –
Cn1cc(Nc2nccc(N3C[C@H]4CC[C@@H](C3)N4c3cc(C#N)ccn3)n2)cn1 [Example 92, 2-[(1R,5S)-3-{2-[(1-methyl-1H-pyrazol-4-yl)amino]pyrimidin-4-yl}-3,8-diazabicyclo[3.2.1]oct-8-yl]pyridine-4-carbonitrile] | – | 52 nM | 264 nM | 6560 nM | 62 nM | –
C[C@@H]1[C@@H]2CN(c3nc(Nc4cnn(C5COC5)c4)ncc3F)C[C@]12NC(=O)[C@@H]1CC1(F)F [Example 99, (1S)-2,2-difluoro-N-[(1S,5R,6R)-3-(5-fluoro-2-{[1-(oxetan-3-yl)-1H-pyrazol-4-yl]amino}pyrimidin-4-yl)-6-methyl-3-azabicyclo[3.1.0]hex-1-yl]cyclopropanecarboxamide] | – | 65 nM | 391 nM | 4940 nM | 26 nM | –
CNC(=O)c1ncc(Nc2ncc(F)c(N3C[C@H]4[C@@H](C)[C@@]4(NC(=O)C4CC4)C3)n2)cc1C [Example 100, 5-[(4-{(1S,5R,6R)-1-[(cyclopropylcarbonyl)amino]-6-methyl-3-azabicyclo[3.1.0]hex-3-yl}-5-fluoropyrimidin-2-yl)amino]-N,3-dimethylpyridine-2-carboxamide] | – | 965 nM | 4250 nM | > 10000 nM | 97 nM | –
CNC(=O)c1ncc(Nc2ncc(F)c(N3C[C@@H]4[C@H](C)[C@]4(NC(=O)C4CC4)C3)n2)cc1C [Example 101, 5-[(4-{(1R,5S,6S)-1-[(cyclopropylcarbonyl)amino]-6-methyl-3-azabicyclo[3.1.0]hex-3-yl}-5-fluoropyrimidin-2-yl)amino]-N,3-dimethylpyridine-2-carboxamide] | – | 1880 nM | 2910 nM | > 10000 nM | 663 nM | –
C[C@@H]1[C@@H]2CN(c3nc(Nc4cnc(CO)c(Cl)c4)ncc3F)C[C@]12NC(=O)C1CC1 [Example 105, N-[(1S,5R,6R)-3-(2-{[5-chloro-6-(hydroxymethyl)pyridin-3-yl]amino}-5-fluoropyrimidin-4-yl)-6-methyl-3-azabicyclo[3.1.0]hex-1-yl]cyclopropanecarboxamide] | – | 1570 nM | 6100 nM | > 10000 nM | 152 nM | –
O=C(N[C@@]12C[C@@H]1CN(c1nc(Nc3cnn(CCO)c3)ncc1Cl)C2)C1CC1 [Example 107, N-[(1S,5R)-3-(5-chloro-2-{[1-(2-hydroxyethyl)-1H-pyrazol-4-yl]amino}pyrimidin-4-yl)-3-azabicyclo[3.1.0]hex-1-yl]cyclopropanecarboxamide] | – | 19 nM | 177 nM | 1880 nM | 21 nM | –
O=C(N[C@]12C[C@H]1CN(c1nc(Nc3cnn(CCO)c3)ncc1Cl)C2)C1CC1 [Example 108, N-[(1R,5S)-3-(5-chloro-2-{[1-(2-hydroxyethyl)-1H-pyrazol-4-yl]amino}pyrimidin-4-yl)-3-azabicyclo[3.1.0]hex-1-yl]cyclopropanecarboxamide] | – | 323 nM | 1490 nM | 3960 nM | 675 nM | –
CCNC(=O)c1ccc(Nc2ncc(F)c(N3CC4CC(C3)N4C(=O)C(C)(F)F)n2)cc1C [Example 111, 4-({4-[6-(2,2-difluoropropanoyl)-3,6-diazabicyclo[3.1.1]hept-3-yl]-5-fluoropyrimidin-2-yl}amino)-N-ethyl-2-methylbenzamide] | – | 1690 nM | 2210 nM | 4870 nM | 56 nM | –
